Laboratory results as given in paper PMC11432624.
Converted amounts (≈) assume the structure as drawn. “And” between values parts separate entries of the source, which are not always exact repeats. Identical values can stand only once. Like-named read-outs stand apart in the source and are kept apart here. Starred links: 1 amine or outer side, 2 acyl side, 3 side chain; linkers in the order of their positions; H or OH if unused. Positions of bridges follow the written chain, without caps; N, C: chain ends. Non-standard residues stand in square brackets, D forms with d. Residues, ends and D or L forms follow the SMILES beside them. No end group written: not given here. *: point of attachment. hTyr(3S-OH,4S-OH,3'-OSO3H) = N[C@H](C(=O)O)[C@H](O)[C@@H](O)c1ccc(O)c(OS(=O)(=O)O)c1; pTerphenylCO(4''-OnC5H11) = CCCCCOc1ccc(-c2ccc(-c3ccc(C(=O)*)cc3)cc2)cc1; Orn(4R-OH,5R-OH) = O=C([C@H](C[C@@H](O)[C@@H](O)N[*:3])N[*:1])[*:2]; hTyr(3S-OH,4S-OH) = N[C@H](C(=O)O)[C@H](O)[C@@H](O)c1ccc(O)cc1; Pro(3S-OH,4S-Me) = C[C@H]1CN[C@H](C(=O)O)[C@H]1O; X1 = CCCCCOc1ccc(-c2cc(-c3ccc(C(=O)*)cc3)no2)cc1; Gln(3R-OH) = NC(=O)C[C@@H](O)[C@H](N)C(=O)O; Hyp = O=C(O)[C@@H]1C[C@@H](O)CN1

Key:
C. tropicalis v13a4/2 = assay type: cell-based; details: v13a4/2, 24 h
Excerpt: (§1) Antifungal activity of the recombinant peptides was studied against collection strains of Candida albicans ATCC 18804 and ATCC 10231, clinical isolates of C. albicans v47a3 and 9.1, clinical isolates of C. krusei 225/2, C. glabrata 252/2 and C. tropicalis v13a4/2 isolated from the patients with human immunodeficiency virus (HIV) infection and provided by the G.N. Gabrichevsky Research Institute for Epidemiology and Microbiology (Moscow, Russia). C. albicans ATCC 18804 and v47a3, C. krusei 225/2, C. glabrata 252/2 and C. tropicalis v13a4/2 were characterized as sensitive to antimycotics yeast strains, while C. albicans ATCC 10231 and 9.1 were resistant to azoles. C. albicans ATCC 10231 was also resistant to anidulafungin (Supplementary Materials, Tables S4 and S6).
(§2) The study was carried out in Sabouraud broth using 96-well microplates. Yeast cells at a concentration of 4 × 10^4 cells/mL were mixed with equal volumes of two-fold dilutions of peptides in water, starting with a maximum concentration of 32 μM. Control wells without peptides were also used. Microplates were incubated at 30 °C for 24 h after that yeast growth was estimated using an inverted microscope and by measuring the optical density at 630 nm. MIC was defined as minimal peptide concentration, inhibiting fungal growth by 100%. To determine whether the peptides act fungicidal or fungistatic, the contents of the wells of the plate with peptide concentrations equal to MIC and higher were sown on Sabouraud agar and incubated at 37 °C for 24 h. MFC was defined as minimal peptide concentration, ensuring the death of all fungal cells. FI was defined as the fungicide index, equal to the MFC/MIC ratio and indicating the severity of the fungicidal action of the peptide. […] Either 150 mM NaCl, 1.25 mM MgCl2, 1.25 mM CaCl2 or 10% fetal bovine serum (FBS) was added to Sabouraud broth to estimate the influence of various salts and serum on the antifungal activity of peptides tested.

C. albicans 9.1 = assay type: cell-based; details: 9.1, 24 h
Excerpt: as §1, §2

C. glabrata 252/2 = assay type: cell-based; details: 252/2, 24 h
Excerpt: as §1, §2

C. albicans ATCC 10231 = assay type: cell-based; details: ATCC 10231, 24 h
Excerpt: as §1, §2

C. albicans v47a = assay type: cell-based; details: 24 h
Excerpt: as §1, §2

C. krusei 225/2 = assay type: cell-based; details: 225/2, 24 h
Excerpt: as §1, §2

C. albicans ATCC 18804 = test: microbe, parasite or virus in culture; assay type: cell-based
Excerpt: as §1, §2

[1] = not given; remark: listed apart in the source
Candida albicans 9.1 = test: Sensitivity of clinical isolates to conventional antimycotics (broth dilution MIC); details: Candida albicans, 9.1, read-out: MICs
Candida albicans v47a3 = test: as above; details: V47A3, read-out: MICs
human red blood cells = system: human red blood cells; set-up: method as in PMID 36557160; details: cited from earlier work
pepsin = pepsin (Sus scrofa, UniProt P00791); details: 50 ng pepsin per 1 μg peptide, 0.05 M HCl pH~1.3, peptide 0.5 mg/mL, 37 °C, after 2 h, SDS-PAGE densitometry
pepsin, sequence (P00791 60-385): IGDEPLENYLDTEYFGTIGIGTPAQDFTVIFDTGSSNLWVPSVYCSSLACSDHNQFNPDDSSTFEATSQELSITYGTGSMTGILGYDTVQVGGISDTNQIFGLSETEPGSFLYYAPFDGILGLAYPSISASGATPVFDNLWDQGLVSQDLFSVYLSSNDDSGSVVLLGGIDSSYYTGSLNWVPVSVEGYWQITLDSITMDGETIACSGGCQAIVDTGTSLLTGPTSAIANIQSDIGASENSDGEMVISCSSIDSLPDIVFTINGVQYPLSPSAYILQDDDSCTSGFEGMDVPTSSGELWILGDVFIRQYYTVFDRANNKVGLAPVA
Protocol: Gastric digestion was performed using 50 ng of pepsin per 1 μg of acidocin A in 0.05 M HCl (pH~1.3). […] The concentration of the peptide was 0.5 mg/mL in both cases. The reaction mixtures were incubated at 37 °C for 2 h and the aliquots were taken at 5 min, 30 min and 2 h after the start of incubation, immediately mixed with the sample buffer containing 4% SDS, and heated for 5 min at 80 °C to ensure protease inactivation. The degree of proteolysis was monitored by Laemmli SDS-PAGE in 18%T 3%C polyacrylamide gels by applying a volume of the mixture containing 1.5 μg of the peptide per lane.

For “KTHYPTNAWKSLWKGFWESLRYTDGF [Acidocin 8912]”, the β-Turn was 23.9% and 17% and 22.4%, the MFC (C. tropicalis v13a4/2) was 16 µM and the MIC (C. tropicalis v13a4/2) was 16 µM. For the same compound, the MFC (C. albicans 9.1) was 32 µM, the MIC (C. albicans 9.1) was 16 µM and the MFC (C. glabrata 252/2) was 16 µM. For the same compound, the MIC (C. glabrata 252/2) was 16 µM, the MFC (C. albicans ATCC 10231) was 32 µM and the MIC (C. albicans ATCC 10231) was 16 µM. For the same compound, the MFC (C. albicans v47a) was over 32 µM, the MIC (C. albicans v47a) was 16 µM and the MFC (C. krusei 225/2) was 32 µM. For the same compound, the MIC (C. krusei 225/2) was 32 µM, the MFC (C. albicans ATCC 18804; ATCC 18804, 24 h) was over 32 µM and the MIC (C. albicans ATCC 18804; ATCC 18804, 24 h) was 32 µM. The Random [1] was 28.9% and 31.2% and 20.3%.
With `CCC(C)n1ncn(-c2ccc(N3CCN(c4ccc(OCC5COC(Cn6cncn6)(c6ccc(Cl)cc6Cl)O5)cc4)CC3)cc2)c1=O` (stereo not drawn) [Itraconazole] the MIC (Candida albicans 9.1) was 16 µg/mL (≈ 22.7 µM) and the MIC (Candida albicans v47a3) was 0.12 µg/mL (≈ 0.17 µM).
`CC[C@H](C)C[C@H](C)CCCCCCCCC(=O)N[C@H]1C[C@@H](O)[C@@H](NCCN)NC(=O)[C@@H]2[C@@H](O)CCN2C(=O)[C@H]([C@H](O)CCN)NC(=O)[C@H]([C@H](O)[C@@H](O)c2ccc(O)cc2)NC(=O)[C@@H]2C[C@@H](O)CN2C(=O)[C@H]([C@@H](C)O)NC1=O` [Caspofungin] gave an MIC (Candida albicans 9.1) of 0.12 µg/mL (≈ 0.11 µM) and an MIC (Candida albicans v47a3) of 0.06 µg/mL (≈ 0.0549 µM).
In the case of “KTYYGTNGVHCTKKSLWGKVRLKNVIPGTLCRKQSLPIKQDLKILLGWATGAFGKTFH (disulfide 11-31) [Acidocin A]”, the HC10 (human red blood cells) is listed as over 128 µM, the β-Turn (cited from earlier work) is listed as 20.3% and 19.2% and 22.6% and the MFC (C. tropicalis v13a4/2) is listed as 4 µM. It also gave an MIC (C. tropicalis v13a4/2) of 4 µM, an MFC (C. albicans 9.1) of 16 µM and an MIC (C. albicans 9.1) of 4 µM. The MFC (C. glabrata 252/2) was 4 µM, the MIC (C. glabrata 252/2) was 4 µM and the MFC (C. albicans ATCC 10231) was 16 µM. The MIC (C. albicans ATCC 10231) was 8 µM, the MFC (C. albicans v47a) was 4 µM and the MIC (C. albicans v47a) was 4 µM. For the same compound, the MFC (C. krusei 225/2) was 8 µM, the MIC (C. krusei 225/2) was 8 µM and the MFC (C. albicans ATCC 18804; ATCC 18804, 24 h) was 8 µM. The MIC (C. albicans ATCC 18804; ATCC 18804, 24 h) was 4 µM, the Random ([1]; cited from earlier work) was 28.6% and 37.9% and 28.8% and the “resistance to pepsin (amount remaining)” value (pepsin) was “more than half of the initial amount was retained”.
`CCCCCOc1ccc(-c2cc(-c3ccc(C(=O)N[C@H]4C[C@@H](O)[C@@H](O)NC(=O)[C@@H]5[C@@H](O)[C@@H](C)CN5C(=O)[C@H]([C@H](O)CC(N)=O)NC(=O)[C@H]([C@H](O)[C@@H](O)c5ccc(O)c(OS(=O)(=O)O)c5)NC(=O)[C@@H]5C[C@@H](O)CN5C(=O)[C@H]([C@@H](C)O)NC4=O)cc3)no2)cc1` [Micafungin] (X1-[Orn(4R-OH,5R-OH)]T[Hyp][hTyr(3S-OH,4S-OH,3'-OSO3H)][Gln(3R-OH)][Pro(3S-OH,4S-Me)]; lactam 1-C) showed an MIC (Candida albicans 9.1) of 0.015 µg/mL (≈ 0.0118 µM) and an MIC (Candida albicans v47a3) of 0.008 µg/mL (≈ 0.0063 µM).
In the case of `C[C@@H]1[C@H](O)[C@@H](C)/C=C/C=C/C=C/C=C/C=C/C=C/C=C/[C@H](O[C@@H]2O[C@H](C)[C@@H](O)[C@H](N)[C@@H]2O)C[C@@H]2O[C@](O)(C[C@@H](O)C[C@@H](O)[C@H](O)CC[C@@H](O)C[C@@H](O)CC(=O)O[C@H]1C)C[C@H](O)[C@H]2C(=O)O` [Amphotericin B, reference compound], the MIC (Candida albicans 9.1) was 1 µg/mL (≈ 1.08 µM), the “concentration with fungicidal effect (2 × MIC)” value (C. albicans ATCC 18804; C. albicans ATCC 18804, antifungal activity assay) was 1 µg/mL and the MIC (C. albicans ATCC 18804; Candida albicans, ATCC18804, C. albicans ATCC 18804, wells previously blocked with 0.1% BSA, read-out: MIC) was 0.5 µg/mL. For the same compound, the MIC (Candida albicans v47a3) was 0.5 µg/mL (≈ 0.541 µM).
In the case of `CCCCCOc1ccc(-c2ccc(-c3ccc(C(=O)N[C@H]4C[C@@H](O)[C@@H](O)NC(=O)[C@@H]5[C@@H](O)[C@@H](C)CN5C(=O)[C@H]([C@@H](C)O)NC(=O)[C@H]([C@H](O)[C@@H](O)c5ccc(O)cc5)NC(=O)[C@@H]5C[C@@H](O)CN5C(=O)[C@H]([C@@H](C)O)NC4=O)cc3)cc2)cc1` [Anidulafungin] ({pTerphenylCO(4''-OnC5H11)}-[Orn(4R-OH,5R-OH)]T[Hyp][hTyr(3S-OH,4S-OH)]T[Pro(3S-OH,4S-Me)]; lactam 1-C), the MIC (Candida albicans 9.1) was 0.06 µg/mL (≈ 0.0526 µM) and the MIC (Candida albicans v47a3) was 0.03 µg/mL (≈ 0.0263 µM).
Work on `OC(Cn1cncn1)(Cn1cncn1)c1ccc(F)cc1F` [Fluconazole] yielded an MIC (Candida albicans 9.1) of 256 µg/mL (≈ 836 µM) and an MIC (Candida albicans v47a3) of 8 µg/mL (≈ 26.1 µM).
`CC[C@@H]([C@H](C)O)n1ncn(-c2ccc(N3CCN(c4ccc(OC[C@@H]5CO[C@@](Cn6cncn6)(c6ccc(F)cc6F)C5)cc4)CC3)cc2)c1=O` [Posaconazole] gave an MIC (Candida albicans 9.1) of 8 µg/mL (≈ 11.4 µM) and an MIC (Candida albicans v47a3) of 0.12 µg/mL (≈ 0.171 µM).
`Nc1[nH]c(=O)ncc1F` [Flucytosine] showed an MIC (Candida albicans 9.1) of 0.06 µg/mL (≈ 0.465 µM) and an MIC (Candida albicans v47a3) of 0.06 µg/mL (≈ 0.465 µM).
In the case of `C[C@@H](c1ncncc1F)[C@](O)(Cn1cncn1)c1ccc(F)cc1F` [Voriconazole], the MIC (Candida albicans 9.1) was 8 µg/mL (≈ 22.9 µM) and the MIC (Candida albicans v47a3) was 0.5 µg/mL (≈ 1.43 µM).
